From paper PMC9105583, “Stereoselective Synthesis and Anticancer Activity of 2,6-Disubstituted trans-3-Methylidenetetrahydropyran-4-ones” (Materials, 2022)
Like-named read-outs stand apart in the source and are kept apart here.

Legend:
HL-60 cells = assay: MTT assay, metabolic activity (cytotoxicity); format: cell-based, human; settings: for IC50: 48 h incubation, MTT, mean ± SEM, read-out: IC50 HL-60
Protocol: (§1) Metabolic activity by MTT assay
(§2) The MTT (3-([…])-2,5-diphenyl tetrazolium bromide) assay was performed to assess the cytotoxicity of the investigated compounds. Briefly, HL-60, MCF-7 and HUVEC cells were seeded in 24-well plates at density of 8 × 10^4/mL. After 24 h incubation, cells were treated with various concentrations of the compounds and incubated for another 24 h or 48 h. Then, the cells were incubated with MTT solution (100 µL; 5 mg/mL in PBS) for 1.5 h and centrifuged. The formazan product was dissolved in DMSO, and the absorption was measured using FlexStation 3 Multi-Mode Microplate Reader (Molecular Devices, LLC, San Jose, CA, USA) at 560 nm. Assays were performed twice in triplicate for each analog.
(§3) The cytotoxic activity of the obtained methylidenetetrahydropyran-4-ones was investigated in two cancer cell lines, human promyelocytic leukemia (HL-60) and breast cancer adenocarcinoma (MCF-7), and in healthy umbilical vein endothelial cells (HUVEC), for comparison. An anticancer drug, carboplatin, was used as a reference compound. Metabolic activity of the cells was assessed after 48 h incubation with various concentrations of the analogs (Table 6). Purity of all final compounds was determined on the basis of their ^1H NMR spectra (signal-to-noise ratio and presence of unidentified signals) and was at least 98%, in most cases even over 99%.

MCF-7 cells = assay: MTT assay, metabolic activity (cytotoxicity); format: cell-based, human; settings: mean ± SEM
Protocol: as §1, §2, §3

[1] = tested on: mouse lymphocytic leukemia cells (L1210); set-up: method as in PMID 18078344; settings: cited from earlier work
[2] = tested on: human cancer cell lines, including lymphoid leukemia L1210 and leukemia P388; set-up: method as in PMID 3693116; settings: cited from earlier work
[3] = tested on: Ehrlich ascites carcinoma; set-up: method as in PMID 3693116; settings: cited from earlier work
[4] = Stability of the compound at room temperature; format: physicochemical
Protocol: Next, we made an attempt to transform the obtained 2-substituted-5-diethoxyphosphoryltetrahydropyran-4-ones 14a-d into target 2-substituted-5-methylidenetetrahydropyran-4-ones 15a-d, using Horner–Wadsworth–Emmons olefination. The reaction was carried out with 2 equivalents of K2CO3, 10 equivalents of formalin, THF as a solvent and room temperature for 3 h. Unfortunately, the obtained 3-methylidenetetrahydropyran-4-ones 15a-c,e, turned out to be unstable at room temperature and decomposed during column chromatography.

HUVEC cells = assay: MTT assay, metabolic activity (cytotoxicity), normal cell line; format: cell-based, human; settings: 48 h incubation, mean ± SEM
Protocol: as §1, §2, §3

[5] = tested on: HL-60 human leukemia cells; set-up: method as in PMID 32019209; settings: cited from earlier work
[6] = Homo sapiens, MCF7, 48 h incubation

Compound | IC50 (HL-60 cells) | IC50 (HL-60 cells; Homo sapiens, HL-60, 48 h) | IC50 (MCF-7 cells; [6]) | other results
C=C1C(=O)C[C@H]([c-]2cccc2)O[C@H]1C(C)C.[Fe+2].c1cc[cH-]c1 (relative stereo) [Analog 13m, Trans-6-ferrocenyl-2-isopropyl-3-methylidenetetrahydro-4H-pyran-4-one] | 3.87 ± 0.16 µM |  |  | IC50 (MCF-7 cells; 48 h incubation): 5.73 ± 0.36 µM
C=C1C(=O)C[C@H](CC)O[C@H]1c1ccccc1 (relative stereo) [Analog 13c, Trans-6-ethyl-3-methylidene-2-phenyltetrahydro-4H-pyran-4-one] |  | 11.8 ± 0.15 µM | 36 ± 0.41 µM | 
C[C@H]1CCC/C=C\[C@H]2C=C[C@H](O)[C@H](CC(=O)O1)O2 [aspergillide C] |  |  |  | cytotoxic activity [1]: showed cytotoxic activity
C=C1C(=O)[C@]2(C)C(=O)O[C@@]34C[C@H](C)C(C(=O)O)=C[C@@H]3CCC[C@@H](C)C[C@@H](C)[C@H]1OC24 (single isomer, unassigned; (+)) [(+)-okilactomycin] |  |  |  | in vitro cytotoxicity [2]: exhibits in vitro cytotoxicity; in vivo activity [3]: in vivo activity
C=C1COC(c2ccc(OC)cc2)CC1=O (stereo not drawn) [Analog 15d, 2-(4-Methoxyphenyl)-5-methylidenetetrahydro-4H-pyran-4-one] |  | 163 ± 7.07 µM | > 200 µM | cytotoxic activity (HL-60 cells; HL-60 and MCF-7, 48 h): practically inactive; stable for a prolonged period of time [4]: at least 7 days
C=C1C(=O)C[C@H](c2ccc(OC)cc2)O[C@H]1c1ccccc1 (relative stereo) [Analog 13l, Trans-6-(4-methoxyphenyl)-3-methylidene-2-phenyltetrahydro-4H-pyran-4-one] |  | 25 ± 0.94 µM | 203 ± 56 µM | 
Trans-2-buthyl-6-ferrocenyl-3-methylidenetetrahydro-4H-pyran-4-one [Analog 13n] | 62.6 ± 0.61 µM |  |  | IC50 (MCF-7 cells; 48 h incubation): > 100 µM
C=C1C(=O)C[C@H](c2ccccc2)O[C@H]1c1ccccc1 (relative stereo) [Analog 13i, Trans-3-methylidene-2,6-diphenyltetrahydro-4H-pyran-4-one] |  | 36 ± 1.41 µM | > 200 µM | 
C=C1C(=O)C[C@H](CC)O[C@H]1C(C)C (relative stereo) [Analog 13a, Trans-6-ethyl-2-isopropyl-3-methylidenetetrahydro-4H-pyran-4-one] |  | 21.3 ± 1 µM | 20.4 ± 0.35 µM | 
N.N.O=C([O-])C1(C(=O)[O-])CCC1.[Pt+2] [Carboplatin, carboplatin, reference compound] | 2.53 ± 0.2 µM |  |  | IC50 (MCF-7 cells; 48 h incubation): 3.76 ± 0.35 µM; IC50 (HUVEC cells): 5.35 ± 0.05 µM
C=C1C(=O)C[C@H](c2ccc(OC)cc2)O[C@H]1CCCC (relative stereo) [Analog 13k, Trans-2-butyl-6-(4-methoxyphenyl)-3-methylidenetetrahydro-4H-pyran-4-one] |  | > 100 µM | > 100 µM | 
C=C1C(=O)C[C@H](c2ccc(OC)cc2)O[C@H]1C(C)C (relative stereo) [Analog 13j, Trans-2-isopropyl-6-(4-methoxyphenyl)-3-methylidenetetrahydro-4H-pyran-4-one] | 3.75 ± 0.07 µM | < 4 µM | 9.11 ± 0.02 µM | IC50 (HUVEC cells; Homo sapiens, HUVEC): 4.25 ± 0.05 µM
C=C1C(=O)C[C@H](CC)O[C@H]1CCCC (relative stereo) [Analog 13b, Trans-2-butyl-6-ethyl-3-methylidenetetrahydro-4H-pyran-4-one] |  | 39.15 ± 0.15 µM | 106.5 ± 0.5 µM | 
C=C1C(=O)C[C@H](C(C)C)O[C@H]1c1ccccc1 (relative stereo) [Analog 13f, Trans-6-isopropyl-3-methylidene-2-phenyltetrahydro-4H-pyran-4-one] |  | 8.45 ± 0.05 µM | 69.7 ± 2.16 µM | IC50 (HUVEC cells; Homo sapiens, HUVEC): 11.9 ± 2.32 µM
C=C1C(=O)C[C@H](C(C)C)O[C@H]1CCCC (relative stereo) [Analog 13e, Trans-2-butyl-6-isopropyl-3-methylidenetetrahydro-4H-pyran-4-one] |  | 78.8 ± 5.25 µM | > 150 µM | 
C=C1C(=O)C[C@H](c2ccccc2)O[C@H]1CCCC (relative stereo) [Analog 13h, Trans-2-buthyl-3-methylidene-6-phenyltetrahydro-4H-pyran-4-one] | 134 ± 1 µM |  |  | IC50 (MCF-7 cells; 48 h incubation): > 150 µM
C=C1C(=O)C[C@H]([c-]2cccc2)O[C@H]1c1ccccc1.[Fe+2].c1cc[cH-]c1 (relative stereo) [Analog 13o, Trans-6-ferrocenyl-3-methylidene-2-phenyltetrahydro-4H-pyran-4-one] | > 100 µM |  |  | IC50 (MCF-7 cells; 48 h incubation): > 100 µM
C=C1C(=O)CC(C)(C)OC1C(C)C (stereo not drawn) [6-isopropyl-2,2-dimethyl-5-methylidenetetrahydropyran-4-one] |  |  |  | apoptosis [5]: induced apoptosis; cell cycle [5]: arrest of the cell cycle in the G2/M phase; cytotoxic activity [5]: very high cytotoxic activity
